According to ChEMBL document CHEMBL3880429, “Aminopyrimidine compounds and their salts, process for preparation and pharmaceutical use thereof” (2012):
Active and inactive are the calls of the source. No cut-off for these calls is given here.

Columns and labels:
[1] = Ratio of IC50 for human HL60 cells to IC50 for Bcr-Abl in human K562 cells
[2] = target: Bcr/Abl fusion protein (Homo sapiens) (UniProt P00519+P11274); test: Potency index, ratio of imatinib IC50 to compound IC50 for Bcr-Abl in human K562 cells; type: cell-based
[3] = Antitumor activity against human K562 cells xenografted in BALB/cA nude mouse assessed as tumor growth at 150 mg/kg, po qd administered via gavage for 21 days relative to control; type: functional
[4] = Cytotoxicity against human HL60 cells assessed as inhibition of cell proliferation after 48 hrs by MTT assay; type: functional, cell-based; details: HL-60, 48 h
[5] = Antitumor activity against human K562 cells xenografted in BALB/cA nude mouse assessed as tumor growth at 37.5 mg/kg, po qd administered via gavage for 21 days relative to control; type: functional
K562 [6] = test: Antitumor activity against human K562 cells xenografted in po dosed BALB/cA nude mouse assessed as tumor growth inhibition administered as qd via gavage for 21 days; type: functional, organism-based
K562 [7] = test: Antitumor activity against human K562 cells xenografted in BALB/cA nude mouse assessed as extinction of tumor at 150 mg/kg, po qd administered via gavage for 21 days; type: functional, organism-based

Bcr/Abl fusion protein (Homo sapiens), sequence (P00519 whole entry, looked up, the tested form may be a part): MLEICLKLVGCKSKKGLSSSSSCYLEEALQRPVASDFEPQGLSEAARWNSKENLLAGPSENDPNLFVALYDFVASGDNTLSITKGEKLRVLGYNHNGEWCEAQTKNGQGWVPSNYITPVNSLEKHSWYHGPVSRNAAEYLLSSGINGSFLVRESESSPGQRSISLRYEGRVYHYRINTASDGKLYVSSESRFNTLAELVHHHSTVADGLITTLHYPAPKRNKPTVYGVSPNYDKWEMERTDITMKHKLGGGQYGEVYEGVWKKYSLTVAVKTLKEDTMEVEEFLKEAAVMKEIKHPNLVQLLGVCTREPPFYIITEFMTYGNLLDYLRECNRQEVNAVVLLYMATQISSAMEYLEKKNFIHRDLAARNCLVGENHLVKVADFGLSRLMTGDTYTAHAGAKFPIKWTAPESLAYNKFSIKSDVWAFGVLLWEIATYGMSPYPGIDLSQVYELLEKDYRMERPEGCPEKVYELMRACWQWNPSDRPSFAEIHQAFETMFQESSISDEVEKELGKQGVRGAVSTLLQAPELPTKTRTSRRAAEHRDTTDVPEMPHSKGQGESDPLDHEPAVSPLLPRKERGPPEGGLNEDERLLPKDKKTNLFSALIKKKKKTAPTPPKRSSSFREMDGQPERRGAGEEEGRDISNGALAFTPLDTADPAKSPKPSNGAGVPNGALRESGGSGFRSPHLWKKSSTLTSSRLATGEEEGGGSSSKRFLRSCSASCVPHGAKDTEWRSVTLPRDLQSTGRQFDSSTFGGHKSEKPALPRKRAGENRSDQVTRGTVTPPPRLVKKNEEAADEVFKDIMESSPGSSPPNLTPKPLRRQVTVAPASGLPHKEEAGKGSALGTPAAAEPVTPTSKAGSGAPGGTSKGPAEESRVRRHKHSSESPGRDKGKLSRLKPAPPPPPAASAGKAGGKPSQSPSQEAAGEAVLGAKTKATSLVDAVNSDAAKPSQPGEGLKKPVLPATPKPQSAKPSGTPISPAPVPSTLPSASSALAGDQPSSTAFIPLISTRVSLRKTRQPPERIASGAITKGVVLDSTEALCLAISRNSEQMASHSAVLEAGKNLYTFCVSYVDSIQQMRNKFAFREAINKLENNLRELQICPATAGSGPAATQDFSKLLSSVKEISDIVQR
Bcr/Abl fusion protein (Homo sapiens), sequence (P11274 whole entry, looked up, the tested form may be a part): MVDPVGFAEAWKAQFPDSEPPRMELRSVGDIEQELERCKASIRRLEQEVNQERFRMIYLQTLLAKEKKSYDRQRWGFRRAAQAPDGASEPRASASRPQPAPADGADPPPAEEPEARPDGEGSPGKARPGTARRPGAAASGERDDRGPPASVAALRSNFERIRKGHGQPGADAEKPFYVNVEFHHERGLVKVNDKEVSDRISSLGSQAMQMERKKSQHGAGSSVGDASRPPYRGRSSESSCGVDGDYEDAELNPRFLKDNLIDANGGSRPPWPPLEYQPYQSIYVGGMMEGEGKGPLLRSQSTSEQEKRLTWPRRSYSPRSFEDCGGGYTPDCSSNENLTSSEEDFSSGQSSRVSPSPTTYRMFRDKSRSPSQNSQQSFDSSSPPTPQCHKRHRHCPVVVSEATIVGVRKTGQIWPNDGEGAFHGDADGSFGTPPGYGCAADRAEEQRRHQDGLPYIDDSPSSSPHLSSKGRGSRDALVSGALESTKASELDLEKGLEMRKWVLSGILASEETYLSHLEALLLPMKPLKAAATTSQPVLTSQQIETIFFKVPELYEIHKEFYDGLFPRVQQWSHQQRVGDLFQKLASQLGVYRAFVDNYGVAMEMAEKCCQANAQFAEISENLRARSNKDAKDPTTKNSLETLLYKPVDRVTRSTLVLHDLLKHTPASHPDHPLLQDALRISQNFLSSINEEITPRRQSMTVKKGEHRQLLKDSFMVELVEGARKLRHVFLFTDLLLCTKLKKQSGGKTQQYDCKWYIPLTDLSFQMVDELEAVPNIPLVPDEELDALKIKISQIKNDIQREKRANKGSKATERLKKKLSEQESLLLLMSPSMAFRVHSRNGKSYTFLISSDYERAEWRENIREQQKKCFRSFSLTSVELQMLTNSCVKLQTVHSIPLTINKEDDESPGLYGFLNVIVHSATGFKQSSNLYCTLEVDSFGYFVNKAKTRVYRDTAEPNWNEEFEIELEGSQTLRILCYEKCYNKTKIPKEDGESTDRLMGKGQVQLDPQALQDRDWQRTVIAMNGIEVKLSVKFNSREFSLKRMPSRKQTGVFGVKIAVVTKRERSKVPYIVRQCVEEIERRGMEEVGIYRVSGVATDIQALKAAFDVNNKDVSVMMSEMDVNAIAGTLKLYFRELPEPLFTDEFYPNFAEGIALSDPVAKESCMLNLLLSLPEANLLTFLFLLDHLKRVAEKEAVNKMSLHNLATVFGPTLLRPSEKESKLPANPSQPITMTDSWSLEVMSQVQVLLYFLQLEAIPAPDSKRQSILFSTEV

Row | Ratio IC50 [2] | SMILES | Ratio IC50 [1] | T/C [3] | IC50 [4] | T/C [5] | TGI (K562 [6]) | Activity (K562 [7])
1 | 4 | CS(=O)(=O)O.Cc1ncc(NC(=O)c2ccc(CN3CCN(C)CC3)c(Cl)c2)cc1Nc1nccc(-c2cccnc2)n1 | 125 | 47.4% |  |  |  | 
2 |  | CS(=O)(=O)O.Cc1ncc(NC(=O)c2ccc(CN3CCN(C)CC3)c(C(F)(F)F)c2)cc1Nc1nccc(-c2cccnc2)n1 |  | 0% | 10 µM | 40.4% | Dose-dependent effect | Active
3 |  | CS(=O)(=O)O.Cc1ccc(NC(=O)c2ccc(CN3CCN(C)CC3)cc2)cc1Nc1nccc(-c2cccnc2)n1 [IMATINIB MESYLATE] |  | 34.2 - 117.7% |  |  |  | 
